Results on 22 sequences are retold here after US20230192774A1, “IMM[…] POLYOMAVIRUSES” (The Council of the Queensland Institute of Medical Research, priority 2019, published 2023).

Holding throughout (type): cell-based, human
For one test, the system named is Peptide-specific T cells. The test can be described thus: T cell cross-reactivity between JCV and BKV epitopes (intracellular cytokine assay). The settings on record: for BKV cross-reactivity: CD4^+ T cell responses to JCV peptides; for recognition of BKV and JCV peptide by T cells expanded with the epitope: expanded with one epitope, re-stimulated with JCV or BKV epitope, IFN-γ. From the text: ICS FACS plots show the expression of IFN-γ in T cells expanded with either BKV epitope (SSGTQQWRGLARYFK (SEQ ID NO: 33)) or JCV epitope (RSGSQQWRGLSRYFK (SEQ ID NO: 12)). These primed T cells were stimulated using both BKV and JCV peptide showing that the T cells expanded with either of these epitopes recognize both BKV and JCV peptide sequences.
Peptide-specific T cells were expanded in vitro following stimulation with JCV epitope or BKV epitope and then re-stimulated with the corresponding […] peptide epitope (see Table 2) so as to observe any cross-reactive response between JCV and BKV epitopes. Specifically, PBMC from healthy volunteers were cultured with synthetic JCV peptide epitope RSGSQQWRGLSRYFK (SEQ ID NO: 12) or with synthetic BKV peptide epitope SSGTQQWRGLARYFK (SEQ ID NO: 33). Following initial expansion, each sample was re-stimulated (re-called) with either JCV epitope RSGSQQWRGLSRYFK (SEQ ID NO: 12) or BKV epitope SSGTQQWRGLARYFK (SEQ ID NO: 33) (wherein samples re-called with the same epitope act as internal controls). The reactivity of the expanded T cells was assessed using standard intracellular cytokine assays (see FIG. 4).

Another test concerns HLA class II. The test can be described thus: HLA class II restriction analysis with peptide-loaded LCLs, IFN-γ ICS assay. The settings on record: LCLs matching one single HLA allele of the donor loaded with peptide for 1 hour. Here is the method:
Specifically, the HLA class II-restriction of VDLHAFLSQAVFSNR (SEQ ID NO: 2) (LT29), FLSQAVFSNRTVASF (SEQ ID NO: 3) (LT30) and TVASFAVYTTKEKAQ (SEQ ID NO: 4) (LT32) peptides as HLA DRB1*10:01 is shown. Briefly, a panel of lymphoblastoid cells (LCLs) matching one single allele of the HLA type of the donor were chosen and loaded with respective peptide for 1 hour. The loaded LCLs were then used as stimulator cells in an IFN-γ ICS assay. The peptide, when presented by the MHC, elicits an IFN-γ response in JCV-specific T cells. […]

A further test deals with CD4^+ T cells. The test can be described thus: intracellular cytokine assay of T cells expanded with synthetic JCV peptides. To be noted: PBMC from healthy volunteers cultured 12-14 days with cytokines. The protocol: JCV-specific T cells were expanded in vitro following stimulation with pooled JCV epitopes. Specifically, PBMC from healthy volunteers were stimulated with synthetic JCV peptides (Table 1) for 1 hour and then cultured for 12-14 days in the presence of different cytokine combinations, including IL-2 (10 ng/ml), IL7 (10 ng/ml), IL12 (10 ng/ml) and/or IL15 (10 ng/ml). The JCV specificity of the expanded T cells was assessed using standard intracellular cytokine assays (Table 6).

In a further test the test system is JCV-specific T cells. The test can be described thus: two-dimensional peptide matrix epitope mapping, IFN-γ ICS assay. To be noted: FACS, individual LTA overlapping peptides. From the text: JCV-specific T cells expanded in vitro using the OPPs were further characterized by identifying specific T cell determinants. […] The response using the subpools were overlayed on a two dimensional matrix, thus showing the common individual peptides among the pools. […] Figure discloses SEQ ID NOS 2-4, respectively, in order of appearance.
In order to precisely map the HLA class I and class II-restricted T cell responses, individual overlapping peptides (15 aa long overlapping by 10 aa) were sourced for LTA, STA and VP1 proteins for T cell epitope mapping. A two-dimensional peptide matrix was used to distribute all individual peptides into small overlapping peptide pools. For example, in the case of Large T Antigen, the matrix is arranged such that each peptide of the pools (LTA1 to LTA24) occurs once on the ordinate. The T cell response for each pool was measured by intracellular cytokine-staining (ICS) IFN-γ assay (see FIG. 2A) and the data overlayed on a two dimensional matrix as follows.
Thus, the common individual peptides among pools that elicited a T cell response were identified, i.e., peptide 32 (P32) at the intersection of row LTA4 and column LTA16 and peptides P29 and P30 at the intersection of row LTA3 with columns LTA23 and LTA24.

Entries after “also recorded” stand apart in the source; their conditions may differ.

In the case of “FLSQAVFSNRTVASF (listed as Betapolyomavirus secuhominis)”, the BKV cross-reactivity entry in the test with Peptide-specific T cells is “Yes”. Moreover, in the test with HLA class II, the “HLA Restriction” value is reported as “DRB1*10:01”. Moreover, in the test on CD4^+ T cells, the “%IFNγ^+CD4^+ with 0.1 μg/ml peptide” value stood at 34.1% and the “%IFNγ^+CD4^+ with 1 μg/ml peptide” value came to 38.39%. Also, in the test on JCV-specific T cells, the “T cell response for individual peptide in the IFN-γ ICS assay” value (from here on “T cell response for individual peptide”) is “elicit a JCV-specific T cell response”.
In the case of SSGTQQWRGLARYFK, in the test on Peptide-specific T cells, the “recognition of BKV and JCV peptide by T cells expanded with the epitope” value was “recognize both the BKV and JCV peptide sequence”.
Consider “LRSSPLVWIDCYCFD (listed as Betapolyomavirus secuhominis)”, for which the “HLA Restriction” value with HLA class II is on record as “DRB1*15:01”. Further, in the test on CD4^+ T cells, the “%IFNγ^+CD4^+ with 0.1 μg/ml peptide” value is reported as 0.4% and the “%IFNγ^+CD4^+ with 1 μg/ml peptide” value stood at 1.81%.
On to “RKAYLKKCKELHPDK (listed as Betapolyomavirus secuhominis)”, for which, in the test with Peptide-specific T cells, the BKV cross-reactivity entry is listed as “Yes”. Besides, the “HLA Restriction” value with HLA class II was “DRB1*13:01”. In the test with CD4^+ T cells, the “%IFNγ^+CD4^+ with 0.1 μg/ml peptide” value is given as 9.2% and the “%IFNγ^+CD4^+ with 1 μg/ml peptide” value came to 10.4%.
In the same order, the values of “KMKRMNFLYKKMEQG (listed as Betapolyomavirus secuhominis)” are “Yes”, “DRB1*15:01”, 0.4% and 1.4%.
“VDLHAFLSQAVFSNR (listed as Betapolyomavirus secuhominis)”: the BKV cross-reactivity entry with Peptide-specific T cells is “Yes”. Moreover, the “HLA Restriction” value in the test on HLA class II is recorded as “DRB1*10:01”. Also, in the test with CD4^+ T cells, the “%IFNγ^+CD4^+ with 0.1 μg/ml peptide” value was 20.26% and the “%IFNγ^+CD4^+ with 1 μg/ml peptide” value worked out at 25.49%. In addition, the “T cell response for individual peptide” value in the test with JCV-specific T cells is “elicit a JCV-specific T cell response”.
With “ERLNFELGVGIDQFM (listed as Betapolyomavirus secuhominis)”, the BKV cross-reactivity result in the test with Peptide-specific T cells is “Yes”. The “HLA Restriction” value in the test with HLA class II was “DRB1*15:01”. In the test with CD4^+ T cells, the “%IFNγ^+CD4^+ with 0.1 μg/ml peptide” value amounted to 2.2% and the “%IFNγ^+CD4^+ with 1 μg/ml peptide” value was found to be 6.32%.
In the case of “IDQFMVVFEDVKGTG (listed as Betapolyomavirus secuhominis)”, in the test with Peptide-specific T cells, the BKV cross-reactivity result is reported as “Yes”. In the test on HLA class II, the “HLA Restriction” value was “DRB1*14:04/; also recorded: DQB1*05:03”. Further, in the test on CD4^+ T cells, the “%IFNγ^+CD4^+ with 0.1 μg/ml peptide” value turned out to be 18.5% and the “%IFNγ^+CD4^+ with 1 μg/ml peptide” value is 24.8%.
For “MDKVLNREESMELMD (listed as Betapolyomavirus secuhominis) [identical BKV homologue]”, in that order: “Yes”, “DRB1*01:01”, 1.65% and 5.26%.
In the same order, the values of “SKNQKSICQQAVDTV (listed as Betapolyomavirus secuhominis) [identical BKV homologue]” are “Yes”, “DRB1*04:01 &; also recorded: DQB1*02:02”, 0.41% and 2.31%.
In the same order, the values of “SITEVECFLTPEMGD (listed as Betapolyomavirus secuhominis)” are “Yes”, “DRB1*01:01 &; also recorded: DQB1*05:01”, 2.8% and 2.71%.
As to “MTREEMLVERFNFLL (listed as Betapolyomavirus secuhominis)”, the BKV cross-reactivity result in the test on Peptide-specific T cells is listed as “Yes”. Further, the “HLA Restriction” value with HLA class II is “DRB1*04:01 &; also recorded: DRB1*03:01”. In the test with CD4^+ T cells, the “%IFNγ^+CD4^+ with 0.1 μg/ml peptide” value was determined as 2% and the “%IFNγ^+CD4^+ with 1 μg/ml peptide” value was 3.8%.
In the same order, the values of “RYWLFKGPIDSGKTT [identical BKV homologue]” are “Yes”, “DRB1*15:01”, 2.35% and 4.05%.
In the same order, the values of “EQYMAGVAWIHCLLP (listed as Betapolyomavirus secuhominis)” are “Yes”, “DRB1*04:01 &; also recorded: DRB1*03:01”, 2.5% and 2.9%.
Consider “TVASFAVYTTKEKAQ (listed as Betapolyomavirus secuhominis)”, for which the BKV cross-reactivity result in the test on Peptide-specific T cells is “Yes”. For the same sequence, the “HLA Restriction” value in the test on HLA class II is reported as “DRB1*10:01”. For the same sequence, in the test with CD4^+ T cells, the “%IFNγ^+CD4^+ with 0.1 μg/ml peptide” value was 6.4% and the “%IFNγ^+CD4^+ with 1 μg/ml peptide” value is given as 7.34%. Also, the “T cell response for individual peptide” value in the test on JCV-specific T cells is listed as “elicit a JCV-specific T cell response”.
With DPDMMRYVDKYGQLQ, the BKV cross-reactivity result in the test with Peptide-specific T cells is on record as “Yes”. For the same sequence, the “HLA Restriction” value in the test on HLA class II is reported as “DRB1*04:02”. For the same sequence, in the test on CD4^+ T cells, the “%IFNγ^+CD4^+ with 0.1 μg/ml peptide” value is listed as 2.1% and the “%IFNγ^+CD4^+ with 1 μg/ml peptide” value is given as 4.5%.
For “TCGNILMWEAVTLKT (listed as Betapolyomavirus secuhominis)”, in that order: “Yes”, “DRB1*15:01”, 2.65% and 4.83%.
For “GGHNILFFLTPHRHR (listed as Betapolyomavirus secuhominis)”, in that order: “Yes”, “DRB1*16:O1”, 1.28% and 6.15%.
As to RSGSQQWRGLSRYFK, in the test on Peptide-specific T cells, the BKV cross-reactivity result is recorded as “Yes”; the “recognition of BKV and JCV peptide by T cells expanded with the epitope” value was “recognize both the BKV and JCV peptide sequence”. Besides, in the test with HLA class II, the “HLA Restriction” value is reported as “DRB1*11:01”. In the test with CD4^+ T cells, the “%IFNγ^+CD4^+ with 0.1 μg/ml peptide” value came out at 7.8% and the “%IFNγ^+CD4^+ with 1 μg/ml peptide” value is reported as 8.4%.
Consider “RNRKFLRSSPLVWID (listed as Betapolyomavirus secuhominis)”, for which the “HLA Restriction” value in the test with HLA class II was “DRB1*15:01”. For the same sequence, in the test on CD4^+ T cells, the “%IFNγ^+CD4^+ with 0.1 μg/ml peptide” value was 0.6% and the “%IFNγ^+CD4^+ with 1 μg/ml peptide” value is given as 3.03%.
As for “SICQQAVDTVAAKQR (listed as Betapolyomavirus secuhominis)”, the BKV cross-reactivity entry in the test on Peptide-specific T cells is given as “Yes”. Further, in the test on HLA class II, the “HLA Restriction” value is “DRB1*04:01 &; also recorded: DQB1*02:02”. In the test on CD4^+ T cells, the “%IFNγ^+CD4^+ with 0.1 μg/ml peptide” value was 0.24% and the “%IFNγ^+CD4^+ with 1 μg/ml peptide” value is given as 4.38%.
On to “NFLYKKMEQGVKVAH (listed as Betapolyomavirus secuhominis)”, for which the “HLA Restriction” value in the test on HLA class II was “DRB1*15:01”. In addition, in the test on CD4^+ T cells, the “%IFNγ^+CD4^+ with 0.1 μg/ml peptide” value is reported as 0.2% and the “%IFNγ^+CD4^+ with 1 μg/ml peptide” value worked out at 1.2%.
